Read-outs that look alike come from different tables or passages of the source.
What was measured:
Format in all cases: cell-based, human
MV4;11 cells = experiment: Cell proliferation experiment (Alamar blue, 72 h), MV4;11; details: Homo sapiens
Description: (§1) Reagents: RPMI-1640 medium, McCoy's 5A medium, IMDM medium, MEM medium, L-15 medium, fetal bovine serum. Penicillin-Streptomycin double antibody, trypsin, etc., 2-mercaptoethanol, NEAA, pyruvate, etc.
(§2) The cells were cultured in conventional ways, and the cells should be passed at least 2 generations before plating. Cells at the logarithmic growth phase were collected, prepared into single cell suspensions and counted. The concentration of cells was adjusted to the desired concentration, and cells were inoculated into a 96-well cell culture plate at 100 μl per well. 100 μL of complete medium of the test compound were added to each well, set up 2 duplicate wells for each concentration, and diluted with a 5-fold gradient, and continued to culture for 72 h. All cells were subjected to IC50 test for corresponding samples. The experimental results are shown in Test Example 4.
(§3) The fluorescence intensity of each well was detected using the Alarm blue method, and IC50 was calculated.
(§4) IC50 was calculated according to the following formula:
(§5) Y=Max+(Min−Max)/[1+(X/IC50)×Slope]
(§6) wherein Min, Max and Slope represent the minimum, maximum and slope respectively.

Daudi cells = experiment: Cell proliferation experiment, Daudi; details: Homo sapiens, Daudi, read-out: Inhibitory activity IC50 on Daudi
Description: as §1, §2, §3, §4, §5, §6

MDA-MB-231 cells = experiment: Cell proliferation experiment, MDA-MB-231
Description: as §1, §2, §3, §4, §5, §6

NCIH82 cells = experiment: Cell proliferation experiment, NCI-H82; details: Homo sapiens, NCI-H82, NCI-H82 cells; read-out: Inhibitory activity IC50 on NCI-H82
Description: as §1, §2, §3, §4, §5, §6

PC-3 = experiment: Cell proliferation experiment, PC-3; details: read-out: Inhibitory activity IC50 on PC-3
Description: as §1, §2, §3, §4, §5, §6

[1] = MV4-11, MV4;11 cells, read-out: Inhibitory activity IC50 on MV4;11
[2] = Homo sapiens, MDA-MB-231, MDA-MB-231 cells, read-out: Inhibitory activity IC50 on MDA-MB-231

Compound	IC50 (MV4;11 cells; [1])	IC50 (Daudi cells; Daudi cells)	IC50 (MDA-MB-231 cells; [2])	IC50 (NCIH82 cells)	other results
CC[C@@H]1C(=O)N(C)c2cnc(Nc3ccc(C(=O)N[C@H]4CC[C@@H](NC5CCN(CCC#Cc6cccc7c6CN(C6CCC(=O)NC6=O)C7=O)CC5)CC4)cc3OC)nc2N1C1CCCC1 (stereo partly shown) [UB-180934]	10 to 100 nM	10 to 100 nM	100 to 1000 nM	–	IC50 (MV4;11 cells; MV4-11, 72 h, MV4;11 cells, 72 h, read-out: Inhibitory activity IC50 of tested compounds on MV4;11 cells): ≤ 100 nM
CC[C@@H]1C(=O)N(C)c2cnc(Nc3ccc(C(=O)NCCCOCCCN(CCC#Cc4cccc5c4CN(C4CCC(=O)NC4=O)C5=O)C(=O)OC(C)C(C)SSC[C@@H](NC(=O)[C@@H](CC(=O)O)NC(=O)[C@@H](CC(=O)O)NC(=O)[C@@H](CCCNC(=N)N)NC(=O)[C@@H](CC(=O)O)NC(=O)CC[C@H](NC(=O)c4ccc(NCc5cnc6nc(N)[nH]c(=O)c6n5)cc4)C(=O)O)C(=O)O)cc3OC)nc2N1C1CCCC1 (stereo partly shown) [UB-180939]	–	–	–	–	IC50 (MV4;11 cells; MV4-11, read-out: Inhibitory activity IC50 on MV4;11): 10 to 100 nM; IC50 (Daudi cells): 100 to 1000 nM; IC50 (MDA-MB-231 cells; Homo sapiens, MDA-MB-231, read-out: Inhibitory activity IC50 on MDA-MB-231): > 1000 nM
CC[C@@H]1C(=O)N(C)c2cnc(Nc3ccc(-c4cn(CCCCCCNCCC#Cc5cccc6c5CN(C5CCC(=O)NC5=O)C6=O)nn4)cc3OC)nc2N1C1CCCC1 (stereo partly shown) [UB-180949]	< 10 nM	10 to 100 nM	10 to 100 nM	–	–
O=C1CCC(N2Cc3cc(NC(=O)CCOCCOCCOCCn4cc(-c5ccc(Nc6ncc7c(n6)-c6ccc(Cl)cc6C(c6c(F)cccc6F)=NC7)cc5)nn4)ccc3C2=O)C(=O)N1 (stereo not shown) [UB-180950]	< 10 nM	100 to 1000 nM	> 1000 nM	100 to 1000 nM	–
CC[C@@H]1C(=O)N(C)c2cnc(Nc3ccc(-c4cn([C@H]5CC[C@@H](NCCCCCC#Cc6cccc7c6CN(C6CCC(=O)NC6=O)C7=O)CC5)nn4)cc3OC)nc2N1C1CCCC1 (stereo partly shown) [UB-180977]	< 10 nM	10 to 100 nM	< 10 nM	–	–
CC[C@@H]1C(=O)N(C)c2cnc(Nc3ccc(C(=O)N[C@H]4CC[C@@H](NCCCCCC#Cc5cccc6c5CN(C5CCC(=O)NC5=O)C6=O)CC4)cc3OC)nc2N1C1CCCC1 (stereo partly shown) [UB-180978]	< 10 nM	10 to 100 nM	< 10 nM	–	–
CC[C@@H]1C(=O)N(C)c2cnc(Nc3ccc(-c4cn([C@H]5CC[C@@H](N(CCOCCC#Cc6cccc7c6CN(C6CCC(=O)NC6=O)C7=O)C(=O)OC(C)C(C)SSC[C@@H](NC(=O)[C@@H](CC(=O)O)NC(=O)[C@@H](CC(=O)O)NC(=O)[C@@H](CCCNC(=N)N)NC(=O)[C@@H](CC(=O)O)NC(=O)CC[C@H](NC(=O)c6ccc(NCc7cnc8nc(N)[nH]c(=O)c8n7)cc6)C(=O)O)C(=O)O)CC5)nn4)cc3OC)nc2N1C1CCCC1 (stereo partly shown) [UB-180979]	10 to 100 nM	10 to 100 nM	100 to 1000 nM	–	–
O=C1CCC(N2Cc3cc(NC(=O)CCCCCCCCCNCCn4cc(-c5ccc(Nc6ncc7c(n6)-c6ccc(Cl)cc6C(c6c(F)cccc6F)=NC7)cc5)nn4)ccc3C2=O)C(=O)N1 (stereo not shown) [UB-180986]	10 to 100 nM	100 to 1000 nM	> 1000 nM	100 to 1000 nM	–
CC[C@@H]1C(=O)N(C)c2cnc(Nc3ccc(-c4cn([C@H]5CC[C@@H](NCCOCCCC#Cc6cccc7c6CN(C6CCC(=O)NC6=O)C7=O)CC5)nn4)cc3OC)nc2N1C1CCCC1 (stereo partly shown) [UB-180992]	< 10 nM	10 to 100 nM	10 to 100 nM	–	–
CC[C@@H]1C(=O)N(C)c2cnc(Nc3ccc(-c4cn([C@H]5CC[C@@H](NCCOCCCC#Cc6ccc7c(c6)CN(C6CCC(=O)NC6=O)C7=O)CC5)nn4)cc3OC)nc2N1C1CCCC1 (stereo partly shown) [UB-180993]	10 to 100 nM	10 to 100 nM	10 to 100 nM	–	–
CC[C@@H]1C(=O)N(C)c2cnc(Nc3ccc(-c4cn([C@H]5CC[C@@H](NCCCOCCC#Cc6cccc7c6CN(C6CCC(=O)NC6=O)C7=O)CC5)nn4)cc3OC)nc2N1C1CCCC1 (stereo partly shown) [UB-180998]	< 10 nM	10 to 100 nM	10 to 100 nM	–	–
CC[C@@H]1C(=O)N(C)c2cnc(Nc3ccc(-c4cn([C@H]5CC[C@@H](NCCCOCCC#Cc6ccc7c(c6)CN(C6CCC(=O)NC6=O)C7=O)CC5)nn4)cc3OC)nc2N1C1CCCC1 (stereo partly shown) [UB-180999]	< 10 nM	10 to 100 nM	10 to 100 nM	–	–
CC[C@@H]1C(=O)N(C)c2cnc(Nc3ccc(-c4cn([C@H]5CC[C@@H](NCCOCCC#Cc6ccc7c(c6)CN(C6CCC(=O)NC6=O)C7=O)CC5)nn4)cc3OC)nc2N1C1CCCC1 (stereo partly shown) [UB-181004]	< 10 nM	10 to 100 nM	10 to 100 nM	–	–
O=C1CCC(N2Cc3cc(NC(=O)CCOCCOCCNCCn4cc(-c5ccc(Nc6ncc7c(n6)-c6ccc(Cl)cc6C(c6c(F)cccc6F)=NC7)cc5)nn4)ccc3C2=O)C(=O)N1 (stereo not shown) [UB-181016]	100 to 1000 nM	> 1000 nM	–	> 1000 nM	–
O=C1CCC(N2Cc3cc(NC(=O)CNCCCOCCCCCNC(=O)[C@]4(Cc5cccc(Nc6nccs6)n5)CC[C@@H](Oc5cccc(Cl)c5F)CC4)ccc3C2=O)C(=O)N1 (stereo partly shown) [UB-181017]	100 to 1000 nM	> 1000 nM	–	> 1000 nM	–
O=C1CCC(N2Cc3cc(NC(=O)CCOCCOCCNCCNC(=O)[C@]4(Cc5cccc(Nc6nccs6)n5)CC[C@@H](Oc5cccc(Cl)c5F)CC4)ccc3C2=O)C(=O)N1 (stereo partly shown) [UB-181018]	> 1000 nM	> 1000 nM	–	> 1000 nM	–
O=C1CCC(N2Cc3cc(NC(=O)CNCCCCOCCCCNC(=O)[C@]4(Cc5cccc(Nc6nccs6)n5)CC[C@@H](Oc5cccc(Cl)c5F)CC4)ccc3C2=O)C(=O)N1 (stereo partly shown) [UB-181019]	100 to 1000 nM	> 1000 nM	–	> 1000 nM	–
O=C1CCC(N2Cc3cc(NC(=O)CNCCCOCCOCCn4cc(-c5ccc(Nc6ncc7c(n6)-c6ccc(Cl)cc6C(c6c(F)cccc6F)=NC7)cc5)nn4)ccc3C2=O)C(=O)N1 (stereo not shown) [UB-181020]	100 to 1000 nM	> 1000 nM	–	> 1000 nM	–
O=C1CCC(N2Cc3c(C#CCCNCCOCCOCCn4cc(-c5ccc(Nc6ncc7c(n6)-c6ccc(Cl)cc6C(c6c(F)cccc6F)=NC7)cc5)nn4)cccc3C2=O)C(=O)N1 (stereo not shown) [UB-181027]	> 1000 nM	> 1000 nM	–	> 1000 nM	–
O=C1CCC(N2Cc3c(C#CCCNCCOCCOCCNC(=O)c4ccc(Nc5ncc6c(n5)-c5ccc(Cl)cc5C(c5c(F)cccc5F)=NC6)cc4)cccc3C2=O)C(=O)N1 (stereo not shown) [UB-181028]	100 to 1000 nM	> 1000 nM	–	> 1000 nM	–
O=C1CCC(N2Cc3cc(C#CCCNCCOCCOCCNC(=O)c4ccc(Nc5ncc6c(n5)-c5ccc(Cl)cc5C(c5c(F)cccc5F)=NC6)cc4)ccc3C2=O)C(=O)N1 (stereo not shown) [UB-181029]	> 1000 nM	> 1000 nM	–	> 1000 nM	–
O=C1CCC(N2Cc3c(NC(=O)CCNCCCOCCCCNC(=O)[C@]4(Cc5cccc(Nc6nccs6)n5)CC[C@@H](Oc5cccc(Cl)c5F)CC4)cccc3C2=O)C(=O)N1 (stereo partly shown) [UB-181030]	> 1000 nM	> 1000 nM	–	> 1000 nM	–
CC[C@@H]1C(=O)N(C)c2cnc(Nc3ccc(-c4cn([C@H]5CC[C@@H](N(C)CCOCCC#Cc6cccc7c6CN(C6CCC(=O)NC6=O)C7=O)CC5)nn4)cc3OC)nc2N1C1CCCC1 (stereo partly shown) [UB-181045]	< 10 nM	–	< 10 nM	–	IC50 (PC-3; Homo sapiens, PC-3, PC-3 cells): 100 to 1000 nM
CC[C@@H]1C(=O)N(C)c2cnc(Nc3ccc(C(=O)N[C@H]4CC[C@@H](NCCOCCC#Cc5cccc6c5CN([C@H]5CCC(=O)NC5=O)C6=O)CC4)cc3)nc2N1C1CCCC1 [UB-181179]	–	–	–	–	IC50 (MDA-MB-231 cells; MDA-MB-231 cells, read-out: Inhibitory activity IC50 on MDA-MB-231): 10 to 100 nM; IC50 (PC-3; PC-3 cells): 10 to 100 nM
NC(=O)c1ccccc1Nc1nc(Nc2ccc(C3CCN(C(=O)N[C@H]4CC[C@@H](NCCC#Cc5cccc6c5CN(C5CCC(=O)NC5=O)C6=O)CC4)CC3)cc2)ncc1Cl (stereo partly shown) [UB-181183]	< 10 nM	10 to 100 nM	–	10 to 100 nM	IC50 (PC-3; Homo sapiens, PC-3, PC-3 cells): 10 to 100 nM
NC(=O)c1ccccc1Nc1nc(Nc2ccc(C3CCN(C(=O)NC4CCN(C5CN(CCC#Cc6ccc7c(c6)CN(C6CCC(=O)NC6=O)C7=O)C5)CC4)CC3)cc2)ncc1Cl (stereo not shown) [UB-181199]	–	10 to 100 nM	–	< 10 nM	IC50 (PC-3; Homo sapiens, PC-3, PC-3 cells): 10 to 100 nM
NC(=O)c1ccccc1Nc1nc(Nc2ccc(N3CCN(C(=O)N[C@H]4CC[C@@H](NCC(O)CC#Cc5ccc6c(c5)CN(C5CCC(=O)NC5=O)C6=O)CC4)CC3)cc2)ncc1Cl (stereo partly shown) [UB-181203]	–	100 to 1000 nM	–	100 to 1000 nM	IC50 (PC-3; Homo sapiens, PC-3, PC-3 cells): 100 to 1000 nM
NC(=O)c1ccccc1Nc1nc(Nc2ccc(C3CCN(C(=O)N[C@H]4CC[C@@H](NCCCCOCCC#Cc5ccc6c(c5)CN(C5CCC(=O)NC5=O)C6=O)CC4)CC3)cc2)ncc1Cl (stereo partly shown) [UB-181205]	–	100 to 1000 nM	–	100 to 1000 nM	IC50 (PC-3; Homo sapiens, PC-3, PC-3 cells): 100 to 1000 nM
O=C1CCC(N2Cc3cc(NC(=O)CCOCCOCCOCCN[C@H]4CC[C@@H](n5cc(-c6ccc(Nc7ncc8c(n7)-c7ccc(Cl)cc7C(c7c(F)cccc7F)=NC8)cc6)nn5)CC4)ccc3C2=O)C(=O)N1 (stereo partly shown) [UB- 180980]	< 10 nM	100 to 1000 nM	> 1000 nM	> 1000 nM	–

From patent US20230210999A1, “TARGETED PROTEASE DEGRADATION (TED) PLATFORM” (EUBULUS BIOTHERAPEUTICS INC., priority 2020, published 2023)
